ChEMBL document CHEMBL3611986, “Reversal of P-gp and BCRP-mediated MDR by tariquidar derivatives” (Eur J Med Chem, 2015)
pIC50: −log10 of the molar value.

Key:
K562 [1] = assay: Induction of UIC2 antibody binding to p-glycoprotein in human K562 cells at 0.5 uM preincubated for 10 mins followed by antibody addition measured after 45 mins by flow cytometry relative to tariquidar; format: cell-based
Hepatocyte = assay: Cytotoxicity against rat hepatocytes assessed as cell viability after 72 hrs by MTT assay; format: cell-based
[2] = biological target: T1, Broad substrate specificity ATP-binding cassette transporter ABCG2 (Homo sapiens, UniProt Q9UNQ0); assay: Inhibition of BCRP-mediated pheophorbide-A efflux in human K562/BCRP cells at 0.5 uM after 1 hr by flow cytometry; format: cell-based; conditions: k562/bcrp, 1 h, 0.5 µM
T1 sequence (Q9UNQ0 whole entry): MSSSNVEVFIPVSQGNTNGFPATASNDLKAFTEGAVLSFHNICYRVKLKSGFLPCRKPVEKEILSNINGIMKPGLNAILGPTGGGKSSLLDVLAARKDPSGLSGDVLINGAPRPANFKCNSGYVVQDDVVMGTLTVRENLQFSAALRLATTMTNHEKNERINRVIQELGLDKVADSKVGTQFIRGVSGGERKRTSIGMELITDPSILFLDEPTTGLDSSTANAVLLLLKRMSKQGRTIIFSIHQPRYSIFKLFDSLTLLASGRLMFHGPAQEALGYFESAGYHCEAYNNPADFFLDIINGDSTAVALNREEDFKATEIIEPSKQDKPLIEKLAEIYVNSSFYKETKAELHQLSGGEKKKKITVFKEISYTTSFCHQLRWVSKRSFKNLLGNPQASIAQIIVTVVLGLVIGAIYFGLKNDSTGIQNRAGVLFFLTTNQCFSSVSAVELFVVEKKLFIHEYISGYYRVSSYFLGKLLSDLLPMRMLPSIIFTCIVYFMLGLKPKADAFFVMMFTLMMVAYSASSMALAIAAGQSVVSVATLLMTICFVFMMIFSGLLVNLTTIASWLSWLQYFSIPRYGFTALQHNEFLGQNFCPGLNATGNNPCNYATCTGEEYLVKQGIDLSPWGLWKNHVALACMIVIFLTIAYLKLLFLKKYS

SW-620 [3] = assay: Cytotoxicity against human SW620 cells at 200 nM after 72 hrs by SRB assay; format: cell-based; conditions: sw-620, 72 h, 0.2 µM
Homo sapiens = species on record: Homo sapiens; assay: Inhibition of p-glycoprotein (unknown origin) expressed in High five insect cell membranes assessed as ATP hydrolysis after 20 mins by colorimetric ATPase assay
HepG2 [4] = assay: Cytotoxicity against human HepG2 cells at 200 nM after 72 hrs by SRB assay; format: cell-based; conditions: hepg2, 72 h, 0.2 µM
MCF7 [5] = assay: Potentiation of mitoxantrone-induced cytotoxicity against human MCF7 cells at 200 nM after 72 hrs by SRB assay relative to control; format: functional
[6] = Cytotoxicity against human SW620/AD300 cells expressing p-glycoprotein at 200 nM after 72 hrs by SRB assay; format: cell-based; conditions: sw-620, 72 h, 0.2 µM
[7] = biological target: T1, Broad substrate specificity ATP-binding cassette transporter ABCG2; assay: Induction of BCRP (unknown origin) expressed in High five insect cell membranes assessed as ATP hydrolysis after 10 mins by colorimetric ATPase assay
[8] = Potentiation of paclitaxel-induced cytotoxicity against human LCC6 cells at 200 nM after 72 hrs by SRB assay relative to control; format: functional
[9] = biological target: T2, ATP-dependent translocase ABCB1 (Homo sapiens, UniProt P08183); assay: Inhibition of p-glycoprotein-mediated rhodamine-123 efflux in human K562/p-gp cells after 1 hr by flow cytometry; format: cell-based
T2 sequence (P08183 whole entry): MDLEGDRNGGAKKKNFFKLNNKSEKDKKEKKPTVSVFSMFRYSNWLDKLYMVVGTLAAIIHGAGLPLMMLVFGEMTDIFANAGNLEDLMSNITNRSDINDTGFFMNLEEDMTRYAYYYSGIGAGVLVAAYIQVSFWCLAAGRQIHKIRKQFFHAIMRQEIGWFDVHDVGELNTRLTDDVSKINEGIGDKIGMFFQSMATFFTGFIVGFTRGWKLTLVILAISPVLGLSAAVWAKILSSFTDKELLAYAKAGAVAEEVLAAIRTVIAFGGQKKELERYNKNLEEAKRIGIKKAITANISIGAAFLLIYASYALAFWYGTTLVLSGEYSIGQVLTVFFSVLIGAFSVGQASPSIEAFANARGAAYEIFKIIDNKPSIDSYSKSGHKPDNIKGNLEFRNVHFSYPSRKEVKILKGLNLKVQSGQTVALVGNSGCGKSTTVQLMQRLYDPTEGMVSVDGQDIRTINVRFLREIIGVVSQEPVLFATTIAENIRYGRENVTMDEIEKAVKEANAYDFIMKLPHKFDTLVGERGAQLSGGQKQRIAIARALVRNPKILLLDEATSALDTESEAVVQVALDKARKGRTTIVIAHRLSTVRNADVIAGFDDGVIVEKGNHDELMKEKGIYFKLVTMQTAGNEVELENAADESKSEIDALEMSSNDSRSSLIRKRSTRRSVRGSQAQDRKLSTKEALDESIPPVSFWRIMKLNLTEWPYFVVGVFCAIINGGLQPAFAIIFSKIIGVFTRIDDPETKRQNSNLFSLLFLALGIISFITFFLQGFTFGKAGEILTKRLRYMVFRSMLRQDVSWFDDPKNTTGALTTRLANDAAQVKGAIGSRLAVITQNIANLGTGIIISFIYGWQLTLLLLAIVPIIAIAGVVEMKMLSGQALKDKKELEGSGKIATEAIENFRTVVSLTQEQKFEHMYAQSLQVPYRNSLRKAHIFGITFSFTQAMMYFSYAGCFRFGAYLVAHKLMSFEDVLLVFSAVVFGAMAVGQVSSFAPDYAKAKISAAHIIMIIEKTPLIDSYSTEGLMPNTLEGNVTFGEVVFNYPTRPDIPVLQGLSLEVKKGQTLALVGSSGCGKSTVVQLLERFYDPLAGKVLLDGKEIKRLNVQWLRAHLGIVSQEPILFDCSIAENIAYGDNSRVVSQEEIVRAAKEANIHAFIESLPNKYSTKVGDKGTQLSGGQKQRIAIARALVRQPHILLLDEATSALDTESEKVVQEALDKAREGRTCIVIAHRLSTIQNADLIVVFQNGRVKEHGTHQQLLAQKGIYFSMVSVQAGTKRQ

HCT-116 = assay: Cytotoxicity against human HCT116 cells assessed as cell viability after 48 hrs by MTT assay; format: cell-based; conditions: HCT-116, 48 h
[10] = biological target: T2, ATP-dependent translocase ABCB1; assay: Inhibition of p-glycoprotein-mediated doxorubicin efflux in human K562/p-gp cells at 1 uM after 1 hr by flow cytometry; format: cell-based
[11] = Cytotoxicity against human CCD-18Co cells assessed as cell viability after 48 hrs by MTT assay; format: cell-based
SW-620 [12] = assay: Potentiation of doxorubicin-induced cytotoxicity against human SW620 cells at 200 nM after 72 hrs by SRB assay relative to control; format: functional
MCF7 [13] = assay: Cytotoxicity against human MCF7 cells at 200 nM after 72 hrs by SRB assay; format: cell-based; conditions: mcf7, 72 h, 0.2 µM
[14] = Cytotoxicity against human MCF-7 FLV1000 cells expressing BCRP at 200 nM after 72 hrs by SRB assay; format: ADME, cell-based; conditions: mcf-7 flv1000, 72 h, 0.2 µM
SW-620 [15] = assay: Cytotoxicity against human SW620 cells assessed as cell viability after 48 hrs by MTT assay; format: cell-based; conditions: SW-620, 48 h
[16] = biological target: T2, ATP-dependent translocase ABCB1; assay: Inhibition of p-glycoprotein in human SW620/AD300 cells assessed as increase of doxorubicin-induced cytotoxicity at 200 nM after 72 hrs by SRB assay relative to control; format: cell-based; conditions: sw-620, 72 h, 0.2 µM
HepG2 [17] = assay: Cytotoxicity against human HepG2 cells expressing p-glycoprotein at 200 nM after 72 hrs by SRB assay; format: cell-based; conditions: hepg2, 72 h, 0.2 µM
[18] = biological target: T2, ATP-dependent translocase ABCB1; assay: Inhibition of p-glycoprotein in human LCC6/MDR cells assessed as increase of paclitaxel-induced cytotoxicity at 200 nM after 72 hrs by SRB assay relative to control; format: cell-based; conditions: 0.2 µM
K562 [19] = assay: Effect on rhodamine-123 efflux in wild type human K562 cells at 0.5 uM after 1 hr by flow cytometry; format: ADME, cell-based; conditions: k562, 1 h
[20] = biological target: T2, ATP-dependent translocase ABCB1; assay: Inhibition of p-glycoprotein in human HepG2 cells assessed as increase of doxorubicin-induced cytotoxicity at 200 nM after 72 hrs by SRB assay relative to control; format: cell-based; conditions: hepg2, 72 h, 0.2 µM
[21] = biological target: Multidrug resistance-associated protein 1 (Homo sapiens, UniProt P33527); assay: Inhibition of MRP1 (unknown origin)-mediated calcein-AM efflux expressed in HEK293/MRP1 cells at 0.5 uM after 1 hr by flow cytometry; format: cell-based; conditions: hek293/mrp1, 1 h
Multidrug resistance-associated protein 1, sequence (P33527 whole entry): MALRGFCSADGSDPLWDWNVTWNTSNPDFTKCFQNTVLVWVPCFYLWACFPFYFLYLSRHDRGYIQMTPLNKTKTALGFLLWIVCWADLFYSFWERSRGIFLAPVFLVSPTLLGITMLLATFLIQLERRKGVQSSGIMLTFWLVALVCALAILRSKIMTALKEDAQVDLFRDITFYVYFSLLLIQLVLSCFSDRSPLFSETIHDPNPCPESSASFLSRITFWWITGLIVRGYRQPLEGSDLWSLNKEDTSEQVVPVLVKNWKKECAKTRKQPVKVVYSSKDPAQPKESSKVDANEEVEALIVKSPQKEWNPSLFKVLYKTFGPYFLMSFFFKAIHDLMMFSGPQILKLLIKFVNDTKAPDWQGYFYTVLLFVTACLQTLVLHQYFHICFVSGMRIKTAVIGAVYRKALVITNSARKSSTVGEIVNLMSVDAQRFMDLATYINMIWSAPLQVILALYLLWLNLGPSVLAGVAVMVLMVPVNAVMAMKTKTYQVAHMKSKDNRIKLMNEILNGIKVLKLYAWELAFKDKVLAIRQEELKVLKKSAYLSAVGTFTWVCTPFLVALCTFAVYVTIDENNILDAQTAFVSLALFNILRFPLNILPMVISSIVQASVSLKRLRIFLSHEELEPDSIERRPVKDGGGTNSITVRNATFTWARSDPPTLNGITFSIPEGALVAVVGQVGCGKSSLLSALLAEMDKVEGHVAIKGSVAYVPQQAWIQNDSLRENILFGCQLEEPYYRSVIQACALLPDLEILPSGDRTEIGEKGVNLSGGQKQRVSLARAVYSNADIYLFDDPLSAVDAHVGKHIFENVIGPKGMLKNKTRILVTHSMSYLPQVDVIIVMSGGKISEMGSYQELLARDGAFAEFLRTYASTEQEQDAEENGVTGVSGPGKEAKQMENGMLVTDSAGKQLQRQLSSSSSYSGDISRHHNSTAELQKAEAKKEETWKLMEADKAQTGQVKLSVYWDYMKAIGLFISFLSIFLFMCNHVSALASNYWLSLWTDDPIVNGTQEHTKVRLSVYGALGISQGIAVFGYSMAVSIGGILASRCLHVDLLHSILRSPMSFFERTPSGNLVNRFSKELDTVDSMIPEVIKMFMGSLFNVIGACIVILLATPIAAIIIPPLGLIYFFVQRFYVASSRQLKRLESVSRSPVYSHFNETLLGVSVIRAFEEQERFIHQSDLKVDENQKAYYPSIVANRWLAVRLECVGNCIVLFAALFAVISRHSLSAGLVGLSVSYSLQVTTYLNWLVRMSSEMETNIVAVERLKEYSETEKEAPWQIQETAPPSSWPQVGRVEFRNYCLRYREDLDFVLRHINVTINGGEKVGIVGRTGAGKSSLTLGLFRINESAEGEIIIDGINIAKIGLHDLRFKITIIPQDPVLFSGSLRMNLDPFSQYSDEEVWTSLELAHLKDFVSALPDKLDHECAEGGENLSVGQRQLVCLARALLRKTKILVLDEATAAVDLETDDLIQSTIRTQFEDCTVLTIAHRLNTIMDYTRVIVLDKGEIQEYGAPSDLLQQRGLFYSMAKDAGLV

[22] = biological target: T1, Broad substrate specificity ATP-binding cassette transporter ABCG2; assay: Induction of 5D3 antibody binding to BCRP in human K562 cells at 0.5 uM preincubated for 10 mins followed by antibody addition measured after 45 mins by flow cytometry relative to tariquidar; format: cell-based; conditions: k562, 0.75 h
P-glycoprotein (ABCB1) = P-glycoprotein (ABCB1) (Homo sapiens, UniProt P08183); assay: (§1) Inhibition of p-glycoprotein-mediated rhodamine-123 efflux in human K562/p-gp cells at 0.5 uM after 1 hr by flow cytometry relative to tariquidar; format: cell-based; conditions: K562/p-gp cells, probe rhodamine-123
P-glycoprotein (ABCB1), sequence (P08183 whole entry): as the sequence (P08183 whole entry) above

[23] = Cytotoxicity against human LCC6 cells expressing p-glycoprotein at 200 nM after 72 hrs by SRB assay; format: cell-based; conditions: lcc6, 72 h, 0.2 µM
[24] = Cytotoxicity against human HFE cells assessed as cell viability after 72 hrs by MTT assay; format: cell-based
[25] = Cytotoxicity against human LCC6 cells at 200 nM after 72 hrs by SRB assay; format: cell-based; conditions: lcc6, 72 h, 0.2 µM
[26] = biological target: T1, Broad substrate specificity ATP-binding cassette transporter ABCG2; assay: Inhibition of BCRP in human MCF-7 FLV1000 cells assessed as increase of mitoxantrone-induced cytotoxicity at 200 nM after 72 hrs by SRB assay relative to control; format: cell-based; conditions: 0.2 µM
[27] = Cytotoxicity against human SW620/AD300 cells assessed as cell viability after 48 hrs by MTT assay; format: cell-based; conditions: SW-620, 48 h
HepG2 [28] = assay: Potentiation of doxorubicin-induced cytotoxicity against human HepG2 cells at 200 nM after 72 hrs by SRB assay relative to control; format: functional
[29] = biological target: T2, ATP-dependent translocase ABCB1; assay: as §1; format: cell-based; conditions: 1 h, 0.5 µM

SMILES	Activity (K562 [1])	inhibition (INH) [2]	Activity (SW-620 [3])	inhibition (Homo sapiens)	Activity (HepG2 [4])	fold change (FC) (MCF7 [5])	Activity [6]	Activity [7]	fold change (FC) [8]	inhibition (INH) [9]	pIC50 (HCT-116)	pIC50 [11]	fold change (FC) (SW-620 [12])	Activity (MCF7 [13])	Activity [14]	pIC50 (SW-620 [15])	fold change (FC) [16]	Activity (HepG2 [17])	fold change (FC) [18]	Activity (K562 [19])	other results
COc1cc2c(cc1OC)CN(CCc1ccc(NC(=O)c3ccccc3NC(=O)c3cnc4ccccc4c3)cc1)CC2	93.2%	Active	Non-toxic	Dose-dependent effect	Non-toxic	1.3	Non-toxic	Active	0.9	Dose-dependent effect	< 4.00	< 4.00	0.36	Non-toxic	Non-toxic	< 4.00	6.23	Non-toxic	2.8	Non-toxic	pIC50 (Hepatocyte; Rattus norvegicus, Hepatocyte): 4.30; inhibition (INH) [10]: Active; fold change (FC) [20]: 0.38; inhibition (INH) [21]: Not Active; Activity [22]: 90.7%; inhibition at 1 h, 0.5 µM (P-glycoprotein (ABCB1)): 90.5%; Activity [23]: Non-toxic; pIC50 [24]: < 5.30; Activity [25]: Non-toxic; fold change (FC) [26]: 2.9; pIC50 [27]: < 4.00; fold change (FC) (HepG2 [28]): 0.29
COc1cc2c(cc1OC)CN(CCc1ccc(NC(=O)c3ccccc3NC(=O)c3ccco3)cc1)CC2	35.5%	Active	Non-toxic	Dose-dependent effect	Non-toxic	1.4	Non-toxic	Active	1.3	Dose-dependent effect	< 4.00	< 4.00	2.1	Non-toxic	Non-toxic	< 4.00	2.63	Non-toxic	46	Non-toxic	Activity (Hepatocyte; rat, hepatocytes): Non-toxic; fold change (FC) [20]: 3; inhibition (INH) [21]: Not Active; Activity [22]: 149.4%; inhibition (INH) [29]: Active; Activity [23]: Non-toxic; pIC50 [24]: < 4.00; Activity [25]: Non-toxic; fold change (FC) [26]: 2.1; pIC50 [27]: < 4.00; fold change (FC) (HepG2 [28]): 1.09
